System: 883617-216-R-J1-PDC complex spheroid viability
Assay: Anticancer human tumor 883617-216-R-J1-PDC patient-derived bladder carcinoma cell line growth inhibition [POLQ]
Conditions: for IC50: curve of first compound; for viability, T/C: stronger effect = lower value; active means viability on the fitted dose curve at most 10% of control; inactive means the rest
In short: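 Complex spheroid viability model combining PDC tumour cells with endothelial (HUVEC) and MSC stromal cells. Novobiocin, ART-558 or RP6685 were tested singly and in combination with standard and investigational anticancer drugs. Each was titrated in half-log steps from near clinical Cmax, or from 10 microM where Cmax was unknown.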
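Further: spheroids exposed to compounds for seven days before readout.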
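Wherever viability, T/C is given: 100% = DMSO vehicle control viability.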

Cn1ncnc1[C@H]1c2n[nH]c(=O)c3cc(F)cc(c23)N[C@@H]1c1ccc(F)cc1 + Nc1ccc(C#CCN(C(=O)Cc2ncc(C(F)(F)F)cc2C(F)(F)F)c2ccc(F)cc2)nn1
inactive: viability, T/C (second compound 0.0316 µM, first compound 0.000316 µM) 87.9% | viability, T/C (second compound 0.0316 µM, first compound 0.001 µM) 94.4% | viability, T/C (second compound 0.0316 µM, first compound 0.00316 µM) 99.1% | viability, T/C (second compound 0.0316 µM, first compound 0.01 µM) 82.4% | viability, T/C (second compound 0.0316 µM, first compound 0.0316 µM) 72% | viability, T/C (second compound 0.0316 µM, first compound 0.1 µM) 78.9% | viability, T/C (second compound 0.1 µM, first compound 0.000316 µM) 93.8% | viability, T/C (second compound 0.1 µM, first compound 0.001 µM) 97.5% | viability, T/C (second compound 0.1 µM, first compound 0.00316 µM) 97.7% | viability, T/C (second compound 0.1 µM, first compound 0.01 µM) 79.7% | viability, T/C (second compound 0.1 µM, first compound 0.0316 µM) 85.4% | viability, T/C (second compound 0.1 µM, first compound 0.1 µM) 80.7% | viability, T/C (second compound 0.316 µM, first compound 0.000316 µM) 82.9% | viability, T/C (second compound 0.316 µM, first compound 0.001 µM) 111% | viability, T/C (second compound 0.316 µM, first compound 0.00316 µM) 91.9% | viability, T/C (second compound 0.316 µM, first compound 0.01 µM) 87.9% | viability, T/C (second compound 0.316 µM, first compound 0.0316 µM) 83% | viability, T/C (second compound 0.316 µM, first compound 0.1 µM) 77.5% | viability, T/C (second compound 1 µM, first compound 0.000316 µM) 91.9% | viability, T/C (second compound 1 µM, first compound 0.001 µM) 94.4% | viability, T/C (second compound 1 µM, first compound 0.00316 µM) 104% | viability, T/C (second compound 1 µM, first compound 0.01 µM) 93.1% | viability, T/C (second compound 1 µM, first compound 0.0316 µM) 84.5% | viability, T/C (second compound 1 µM, first compound 0.1 µM) 81.8% | viability, T/C (second compound 3.16 µM, first compound 0.000316 µM) 101% | viability, T/C (second compound 3.16 µM, first compound 0.001 µM) 112% | viability, T/C (second compound 3.16 µM, first compound 0.00316 µM) 90.2% | viability, T/C (second compound 3.16 µM, first compound 0.01 µM) 109% | viability, T/C (second compound 3.16 µM, first compound 0.0316 µM) 86% | viability, T/C (second compound 3.16 µM, first compound 0.1 µM) 67.8% | viability, T/C (second compound 10 µM, first compound 0.000316 µM) 100% | viability, T/C (second compound 10 µM, first compound 0.001 µM) 102% | viability, T/C (second compound 10 µM, first compound 0.00316 µM) 102% | viability, T/C (second compound 10 µM, first compound 0.01 µM) 95.8% | viability, T/C (second compound 10 µM, first compound 0.0316 µM) 118% | viability, T/C (second compound 10 µM, first compound 0.1 µM) 92.2%
> 100 nM: IC50 (second compound 0.0316 µM) | IC50 (second compound 0.1 µM) | IC50 (second compound 0.316 µM) | IC50 (second compound 1 µM) | IC50 (second compound 3.16 µM) | IC50 (second compound 10 µM)
